Data from US20110152271A1, “Compositions and methods for ophthalmic delivery of nasal decongestants” (priority 2009, published 2011).
Where two headings read alike, the source gives them in different places.

Columns and labels:
[1] = Procedure: 1 drop of 0.025% brimonidine was applied to the right eye of each patient. […] Then, the breathing function was measured in each nostril separately 10 minutes later. Then, 1 dose of 0.0045% brimonidine nasal spray was applied into the left nostril and the ease of breathing was again measured in each nostril separately 10 minutes later.
[2] = 0.025% brimonidine topically to one eye; 10 minutes; 11 individuals
Procedure: 11 individuals were asked to assess the patency of each nostril by alternately closing one. They were then given 0.025% brimonidine topically to one randomly selected eye. After 10 minutes each nostril was alternately closed to assess the patency of the contralateral nostril and compare to its patency before applying brimonidine to the eye. […] Nasal patency refers to a basic evaluation of the degree to which a nostril is open (i.e. unblocked).

[3] = 0.025% brimonidine in one eye
Procedure: Eight (8) human subjects were administered 0.025% brimonidine. The subjects were administered with the drug in one eye and then asked to assess themselves in the mirror to see if they perceived a difference in conjunctival hyperemia between eyes. The drug was administered around 9:15 am. The assessments were made 5 minutes after the administration and 4 hours after the administration. After the four hours assessment, the drug was re-administered.

With `Brc1c(NC2=NCCN2)ccc2nccnc12` [brimonidine] the “whiteness of the treated right eye” value ([1]; 1 drop of 0.025% brimonidine to the right eye) was “In all patients, the right eye has become whiter”, the “patients reporting reduced nasal congestion in the right nostril” value ([1]; 1 drop of 0.025% brimonidine to the right eye, 10 minutes later, three subjects with records) was “all three patients reported reducing nasal congestion in the right nostril” and the “patients reporting reduced nasal congestion in both nostrils” value ([1]; after eye drop, 1 dose of 0.0045% brimonidine nasal spray into the left nostril, 10 minutes later, three subjects with records) was “all three patients reported reduced nasal congestion in the both nostrils”. The “increase in patency in the contralateral nostril” value [2] was “not in the contralateral”, the “patients with noticeable increase in patency in the ipsilateral nostril” value [2] was 9 of the 11 and the “subjects reporting reduced hyperemia and increased whiteness in the treated eye” value ([3]; 5 min assessment) was “eight of eight”. For the same compound, the “subjects reporting reduced hyperemia and increased whiteness in the treated eye” value ([3]; four hour assessment) was “eight of eight” and the “subjects reporting reduced nasal congestion in the nostril on the same side as the treated eye” value ([3]; four hour assessment) was “six of eight”.
